Data from patent publication US20110245311A1, “Histidine Derivatives” (priority 2010, published 2011).

Experiments:
Gram negative strains = test: Antibiotic activity, plate counts on Mueller-Hinton agar, Gram negative ATCC strains; assay type: cell-based; details: 2 mg/ml, 1 mg/ml; plate counts after overnight incubation at 37° C.
Experimental: The antibiotic activity of S-2-amino-3(3-phenylacetylimidazol-4-yl)propanoic acid (Compound A) was tested with a panel of standard ATCC bacteria, including 13315 Proteus vulgaris, 13883 Klebsiella pneumoniae, 25922 Escherichia coli, 27853 and Pseudomomas aeruginosa.
Doubling dilutions of Compound A were tested on its antibiotic potentials. […] Plate counts were performed. All petri plates inoculated with 1 ml 0.5McFarland turbidity of corresponding ATCC strain.

Gram positives = test: Antibiotic activity, plate counts on Mueller-Hinton agar, Gram positives; assay type: cell-based; details: plate counts after overnight incubation at 37° C.
U-87 cells = test: Cell viability (cell count) with U-87 cells; assay type: cell-based; details: Homo sapiens, U-87 MG, 72 hours, 37° C., MEM pH 7.0, read-out: EC90 (concentration resulting in greater than 90% decrease of cell numbers)
HepG2 cells = test: Cell viability of HepG2 cell line; assay type: cell-based; details: Homo sapiens
Experimental: The antineoplastic activities of Compound A were tested with U-87, a human glioblastoma/astrocytoma cell line and HepG2, a human liver carcinoma cell line.
The antineoplastic activity of Compound A was also measured with HepG2 cells.

mice = test: Preclinical safety study in mice; assay type: in vivo; details: 300 mg/kg or 500 mg/kg orally (PO), up to 72 hours
Experimental: Preclinical safety studies were performed with administration of different levels of doses of Compound A to mice. Toxicity was analyzed with standard clinical chemical and histopathological examination. Five mice (n=5) were treated with 300 mg/kg or 500 mg/kg orally (PO) with one hour pretreatment for PO. Autonomic signs/mortality was measured during the first hour and mortality was measured again at 3, 24, 48 and 72 hours after administration.

caspase 3 = test: In vitro caspase assay (ELISA) in U-87 cells; assay type: cell-based, human; details: 5 mM, 18 hours after the addition
Experimental: U-87 cells were used to test the effect of Compound A on the apoptotic pathway.
U-87 cells were seeded in MEM alone or in MEM supplemented with 5 mM of Compound A, in MTP. For in vitro caspase assay, the cell culture plates were removed from incubator, cells were lysed and centrifuged and the supernatant was tested for caspase levels (C3). Supernatants from each sample were tested side by side on a new microtitre plate by ELISA with AP labelled IgG C3 antibody, pNPP chromogen (Enzo Diagnostics, Farmingdale, N.Y.). Caspase assays were performed immediately after the addition of the MEM medium, with or without Compound A, and 18 hours after the addition.

**Q.** For `N[C@@H](Cc1cncn1C(=O)Cc1ccccc1)C(=O)O` [Compound A, (S)-2-amino-3-(3-phenylacetylimidazol-4-yl) propanoic acid], which “inhibition of Gram negative strains” value (Gram negative strains) is on record?
**A.** did show inhibition

**Q.** And the “inhibition of Gram positives” value (Gram positives)?
**A.** No inhibition

**Q.** And the EC90 (U-87 cells)?
**A.** 5 mM

**Q.** What about the EC90 (HepG2 cells) of the same compound?
**A.** 5 mM

**Q.** And the cytotoxicity at 5000 µM (HepG2 cells; 5 mM, read-out: decrease in cell viability)?
**A.** > 90%

**Q.** And the “toxicity (autonomic signs/mortality, clinical chemical and histopathological examination)” value (mice)?
**A.** No toxicity was observed

**Q.** And the “increase of caspase 3” value (caspase 3)?
**A.** Exponential increase, in the scale of several orders of magnitude
